Assays:
[1] = Draves Wetting Test (ASTM D2281-68); format: physicochemical; settings: 0.05 wt % (actives basis) in DI water; average of 3 measurements
Protocol: A 0.05 wt % (actives basis) solution of amine oxide in deionized (DI) water was used to determine the Draves wet-out time (WOT) in seconds. 0.75 g of surfactant was dispersed in 1,500 ml of DI water. The wet-out time (WOT) in seconds is recorded in Table 14 (average of 3 measurements). LAO is Lauramine oxide (linear hydrophobe), Sigma catalog number 40236.

[2] = Foam height, high shear (Waring blender); format: physicochemical; settings: for Foam volume (ml) 5 min / Foam volume (ml) Initial: 0.05 wt % in deionized water; for Foam volume (ml) 5 min: after 5 minutes; for Foam volume (ml) Initial: blended on High 30 seconds; for % decrease: foam volume, initial to 5 min
Protocol: A 0.05 wt % (actives basis) solution of the test surfactant was made in deionized water. 250 ml of the test solution was added the beaker of a Waring blender, capped, and then blended on High for 30 seconds and immediately transferred to a 1 L graduated cylinder. The total volume of foam plus liquid, as well as the liquid layer alone was recorded. The foam and liquid volumes were recorded again after 5 minutes.

[3] = Salt thickening, viscosity of SLS/SLES/amine oxide formulation; format: physicochemical; settings: shear rate 3/s
Protocol: Linear amine oxides tend to increase the viscosity of a formulation containing NaCl in a dose-dependent manner. The viscosity (cP; shear rate 3/s) of a simple formulation was measured as the salt concentration varied from 0 to 5 wt %.

[4] = Stain removal in cold water, brightness L*; settings: compared to LAO; additive 0.05% active
Protocol: Amine oxides with linear and branched hydrophobes were compared in a screen for stain removal in cold water. Simple laundry liquid formulations were made that included only surfactants and builder.
Standard stain swatches were purchased from Testfabrics, Inc. (West Pittston, Pa.). STC/CFT PC-S-216 is diluted red lipstick on poly/cotton (65/35), and STC/CFT PC-S-132 is high discriminative sebum (synthetic) with pigment on poly/cotton, both made by Center for Testmaterials BV (CFT; The Netherlands). The swatches were pre-cut into 2 inch squares. The test formulation was diluted with DI water to 0.06% total surfactant to make the wash solution. Additives were added at a final concentration of 0.05% active in the wash solution. Stained fabric swatches were added to the wash solution, washed and rinsed at 20° C., and air-dried. The average swatch brightness (L*) for each treatment, and standard deviation, are reported for 3 replicates. […] All treatments are brighter than the untreated stain swatches. The nonionics NPE and LAE7 removed the lipstick and sebum stains to the same brightness.

[5] = High-shear foaming of N-alkyl-N-methylglucamines in commercial blender; format: physicochemical; settings: 1 wt % test substance in 10 wt % SDS, diluted to 0.05 wt % surfactant
Protocol: The high-shear foaming behavior of linear and branched N-alkyl-N glucamines was investigated, as this can have an impact on their performance in home care applications. […] The solutions were heated to 80° C., ultrasonicated for 1 h, and cooled to room temperature. Finally, the as-obtained solutions were diluted with MilliQ water to obtain a 0.05 wt % surfactant solution. In agreement with the literature on branched hydrophobes, the high-shear foaming tests performed in the commercial blender indicate that the linear N-decyl-N-methylglucamine (IC10 NMG) solution foams relatively more than its branched counterpart solution. For all solutions, the initial foam volume is between 40 and 53 mL. Lauramine oxide (LAO) appears to be foamier than the N-alkyl-N-methylglucamines.

[6] = tested on: zein protein; settings: 1% surfactant solution, 30 C, 30 minutes
Source text: Amine oxides with linear and branched hydrophobes from Examples 65 and 66 were compared in a screen to predict mildness of surfactants. There is a correlation between the ability of a surfactant to denature a protein and the skin irritation potential of that surfactant. The relationship is believed to result from surfactant binding to proteins like keratin, followed by the denaturation of these proteins, leading to skin irritation. A common screening test involves measuring the amount of zein (a corn protein which is insoluble in water) solubilized by a surfactant solution, the Zein Solubilization Test (Moore et al., 2003 and references therein)
For the test, 0.0750 g of zein protein is transferred into a 1.5 mL centrifuge tube. To this 1.5 mL of 1% surfactant solution is added, mixed, and placed in a 30 C incubator with mild stirring for 30 minutes. After 30 minutes has elapsed, the tube is centrifuged for 30 min at 3600 rpm. The solution is filtered through a pre-weighed 8 micron filter paper, and then dried overnight in a 50° C. oven. The insoluble zein residue is then weighed and the wt % Zein dissolved is calculated using the equation below. Each solution is analyzed in triplicate. The Zein score is normalized to a standard included in each set of tests, in this case LAE10.
% zein dissolved=(total zein added−total zein after drying Total zein added)×100

[7] = Foaming of amine oxide added to commercial laundry liquid (Waring blender); format: physicochemical; set-up: Difference: unit: ml; settings: for Difference: initial minus 5 min foam volume
Protocol: The surface foam volume and foam persistence of solutions of the amine oxides with linear and branched hydrophobes from Examples […] were compared. A commercial laundry liquid was diluted in deionized water according to the dosing instructions; 4.2 ml/L Persil Original. The diluted detergent was supplemented with 0%, 2%, 5% (based on wt laundry liquid) of LAO or Branched C12 AO, (2,4-diethyl-N,N-dimethyloctan-1-amine oxide, Example 66), and the solutions mixed briefly and used immediately. 250 ml of each test solution was added the beaker of a Waring blender, capped, and then blended on High for 30 seconds and immediately transferred to a 1 L graduated cylinder. The total volume of foam plus liquid, as well as the liquid layer alone was recorded. The foam and liquid volumes were recorded again after 5 minutes. All tests were performed in triplicate.

[8] = NaCl 0 wt %, 1.4% amine oxide, 4.3% SLS, 4.3% SLES

| SMILES | Wet out time [1] | Foam volume (ml) 5 min [2] | Foam volume (ml) Initial [2] | % decrease [2] | Viscosity [3, 8] | Viscosity ([3]; NaCl 0.5 wt %) | Viscosity ([3]; NaCl 1.0 wt %) | Viscosity ([3]; NaCl 1.5 wt %) | Viscosity ([3]; NaCl 2.0 wt %) | Viscosity ([3]; NaCl 2.5 wt %) | Viscosity ([3]; NaCl 3.0 wt %) | Viscosity ([3]; NaCl 3.5 wt %) | Viscosity ([3]; NaCl 4.0 wt %) | Viscosity ([3]; NaCl 4.5 wt %) | Viscosity ([3]; NaCl 5.0 wt %) | further results |
| --- | --- | --- | --- | --- | --- | --- | --- | --- | --- | --- | --- | --- | --- | --- | --- | --- |
| CCCCC(CC)CC(C)C[N+](C)(C)[O-] (stereo not shown) [Example 65, 4-ethyl-N,N-2-trimethyloctan-1-amine oxide] | >300 s | 0 mL | 267 mL | 100% | 2 cP | 7 cP | 36 cP | 257 cP | 2,050 cP | 3,635 cP | 3,459 cP | 2,021 cP | 670 cP | 288 cP | 148 cP | foam in the wash solution [4]: very little foam |
| CCCCCCCCCCCC[N+](C)(C)[O-] [LAO, N,N-dimethyl laurylamine oxide, reference compound] | 33 s | 500 mL | 523 mL | 4% | 2 cP | 2 cP | 11 cP | 115 cP | 1,494 cP | 7,562 cP | 17,343 cP | 25,302 cP | 27,585 cP | 24,918 cP | 19,368 cP | Foam volume after 5 seconds stirring at speed 1 [5]: 53 mL; Foam volume after 5 minutes settling [5]: 50 mL; Zein score - normalized to LAE10 [6]: 4.212; Foam volume After 5 min ([7]; Persil + 2% additive): 473 mL; Difference ([7]; Persil + 2% additive): 54; Foam volume After 5 min ([7]; Persil + 5% additive): 507 mL; Difference ([7]; Persil + 5% additive): 6; Initial foam volume ([7]; Persil Original 4.2 ml/L + 2% additive): 527 mL; Initial foam volume ([7]; Persil Original 4.2 ml/L + 5% additive): 513 mL |

Source: patent US20190218170A1, “BRANCHED TRIALKYLAMINE PRECURSORS, INTERMEDIATES, PRODUCTS MADE THEREFROM AND PROCESSES OF MANUFACTURE” (priority 2018, published 2019)
